The record followed here is patent publication US9745328B2, “Flap modulators” (JANSSEN PHARMACEUTICA NV, priority 2013, dated 2017).

Counter-ions that a name gives are not always drawn. Like-named read-outs stand apart in the source and are kept apart here.

The IC50 is the concentration that inhibits the measured activity by half. For orientation: Ki means a measure of affinity in units of concentration, obtained from inhibition or displacement. A higher Ki goes with weaker binding.

The subject of experiment [1] is leukotriene pathway in human whole blood (LTB4). In words: Human whole blood assay (LTB4 levels after calcium ionophore A23187 stimulation). Format: cell-based. Here is the method:
The ability of the compounds of the present invention to treat a FLAP-mediated disease and/or disorder, or associated symptoms or complications thereof, was determined using the following procedures. Binding assay data represent the average value obtained from two different assay plates, with samples run in duplicate on each plate. Human whole blood assay data represent a single replicate on an assay plate using whole blood from at least one healthy donor.
An in vitro cellular assay was performed using human whole blood collected in heparin-containing tubes, which was used to test the ability of compounds to modulate the leukotriene pathway in human whole blood. The blood was diluted 1:1 in RPMI medium, pre-incubated for 15 min at 37° Celsius with test compounds at various concentrations, and then stimulated with calcium ionophore, A23187 (7 μg/mL), for 30 min at 37° Celsius. The samples were then centrifuged and plasma was removed. The plasma was diluted in assay buffer and LTB4 levels were measured using a commercial kit (Enzo Life Sciences). The concentration of each compound that was required for half-maximal inhibition (modulation) of recombinant enzyme activity (IC50) was calculated by a 4-parameter equation using the program GraphPad Prism (GraphPad software).

For another experiment, the target named is human FLAP (Homo sapiens (Human), UniProt P20292). As to the kind of experiment: FLAP binding assay (HTRF format). The method, boiled down:
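Averaged over two plates (duplicate wells per plate); output given as HTRF ratio.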
(In general: Time-resolved FRET reads energy transfer from a long-lived donor to a nearby acceptor.)

Setting [2] is: Homo sapiens, human whole blood diluted 1:1, A23187 stimulation; Table 6 (additional runs); read-out: Human Whole Blood LTB4 IC50 1:1.
The mark [3] stands for this setting: human FLAP wild type, Table 6 (additional runs).
Setting [4] is: Homo sapiens, Table 6 (additional runs); human whole blood diluted 1:1, A23187 stimulation; read-out: Human Whole Blood LTB4 IC50 1:1.
The mark [5] stands for this setting: Table 6 (additional runs), human FLAP wild type.

Chain of human FLAP (P20292 whole entry): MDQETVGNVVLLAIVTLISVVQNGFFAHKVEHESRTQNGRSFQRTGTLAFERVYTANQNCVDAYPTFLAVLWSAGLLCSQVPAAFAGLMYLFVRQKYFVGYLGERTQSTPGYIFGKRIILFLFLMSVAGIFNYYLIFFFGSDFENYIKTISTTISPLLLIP

Regarding `Nc1cnc(-c2ccc(-c3cccnc3S(=O)(=O)C3CC3)cc2F)cn1` [Example 829, 5-{4-[2-(Cyclopropylsulfonyl)pyridin-3-yl]-2-fluorophenyl}pyrazin-2-amine formic acid salt], in experiment [1] (setting [2]), the IC50 is 9 nM. Besides, the Ki on human FLAP (setting [3]) came to 5.7 nM.
Turning to `Nc1cnc(-c2ccc(-c3ccccc3OC(F)(F)F)cc2F)cn1` [Example 475, 5-[3-Fluoro-2′-(trifluoromethoxy)biphenyl-4-yl]pyrazin-2-amine], the IC50 in experiment [1] (setting [2]) worked out at 4180 nM. In addition, at human FLAP (setting [3]), the Ki worked out at 89.6 nM.
In the case of `Nc1cnc(-c2ccc(-c3ccccc3S(=O)(=O)N3CCC[C@@H]3CO)cc2F)cn1` [Example 91, (R)-(1-((4′-(5-aminopyrazin-2-yl)-3′-fluoro-[1,1′-biphenyl]-2-yl)sulfonyl)pyrrolidin-2-yl)methanol], the IC50 in experiment [1] (setting [4]) is 38.3 nM. Also, the affinity at human FLAP (setting [5]), expressed as Ki, was 4.7 nM.
Turning to `CC(=O)N1CCCC(S(=O)(=O)c2ncccc2-c2ccc(-c3cnc(N)cn3)c(F)c2)C1` (centres unmarked) [Example 903, 5-(4-{2-[(1-Acetylpiperidin-3-yl)sulfonyl]pyridin-3-yl}-2-fluorphenyl)pyrazin-2-amine], the IC50 in experiment [1] (setting [2]) stood at 63.4 nM. For the same compound, on human FLAP (setting [3]), the Ki came to 38.7 nM.
As to `Nc1ncc(-c2ncc(-c3ccccc3S(=O)(=O)C3CC3)cc2F)cn1` [Example 878, 5-{5-[2-(Cyclopropylsulfonyl)phenyl]-3-fluoropyridin-2-yl}pyrimidin-2-amine], in experiment [1] (setting [2]), the IC50 was determined as 320 nM. This compound also returned a Ki at human FLAP (setting [3]) of 276 nM.
`Nc1cnc(-c2ccc(-c3cccnc3S(=O)(=O)C3CCN(CCO)CC3)cc2F)cn1` [Example 904, 2-[4-({3-[4-(5-Aminopyrazin-2-yl)-3-fluorophenyl]pyridin-2-yl}sulfonyl)pipendin-1-yl]ethanol]: the IC50 in experiment [1] (setting [2]) was found to be 105 nM. In addition, on human FLAP (setting [3]), the Ki was 255 nM.
In the case of `CNc1ncc(-c2ccccc2-c2ccc(-c3cnc(N)nc3)c(F)c2)cn1` [Example 866, 5-[4′-(2-Aminopyrimidin-5-yl)-3′-fluorobiphenyl-2-yl]-N-methylpyrimidin-2-amine], the IC50 in experiment [1] (setting [2]) worked out at 539 nM. For the same compound, the Ki at human FLAP (setting [3]) came out at 170 nM.
As for `Nc1cnc(-c2ccc(-c3ccccc3O[C@H]3CC[C@H](N)CC3)cc2F)cn1` [Example 891], in experiment [1] (setting [2]), the IC50 was found to be 752 nM. Affinity at human FLAP (setting [3]) was put at a Ki of 31.5 nM.
On to `Nc1cnc(-c2ccc(-c3ccccc3Oc3cc(N)ncn3)cc2F)cn1` [Example 535, 6-{[4′-(5-Aminopyrazin-2′yl)-3′-fluorobiphenyl-2-yl]oxy}pyrimidin-4′-amine], for which, in experiment [1] (setting [2]), the IC50 is 15.5 nM. The Ki on human FLAP (setting [3]) stood at 1.5 nM.
For `CC(=O)N1CCC(S(=O)(=O)c2nc(C(F)(F)F)ccc2-c2ccc(-c3cnc(N)nc3)c(F)c2)CC1` [Example 911, 5-(4-{2-[(1-Acetylpiperidin-4-yl)sulfonyl]-6-(trifluoromethyl)pyridin-3-yl}-2-fluorophenyl)pyrimidin-2-amine], the IC50 in experiment [1] (setting [2]) was determined as 28.7 nM. This compound also had a Ki on human FLAP (setting [3]) of 166 nM.
Turning to `CCCS(=O)(=O)Nc1ccccc1-c1ccc(-c2cnc(N)cn2)c(F)c1` [Example 36, N-[4′-(5-Aminopyrazin-2-yl)-3′-fluorobiphenyl-2-yl]propane-1-sulfonamide], the IC50 in experiment [1] (setting [4]) turned out to be 137 nM. For the same compound, the Ki at human FLAP (setting [5]) amounted to 8.1 nM.
Consider `NC(=O)c1ccc(Oc2ccccc2-c2ccc(-c3cnc(N)nc3)c(F)c2)cc1` [Example 890, 4-{[4′-(2-Aminopyrimidin-5-yl)-3′-fluorobiphenyl-2-yl]oxy)benzamide], for which, in experiment [1] (setting [2]), the IC50 came out at 62.3 nM. This compound also gave an inhibitory constant (Ki) on human FLAP (setting [3]) of 3.7 nM.
As to `Nc1cnc(-c2ccc(-c3ccccc3S(=O)(=O)NC[C@H](O)c3ccccc3)cc2F)cn1` [Example 117, (R)-4′-(5-aminopyrazin-2-yl)-3′-fluoro-N-(2-hydroxy-2-phenylethyl)-[1,1′-biphenyl]-2-sulfonamide], in experiment [1] (setting [4]), the IC50 was 6.6 nM. At human FLAP (setting [5]), this compound showed a Ki of 0.7 nM.
With `Nc1cnc(-c2ccc(-c3ccccc3-c3cnn(CCO)c3)cc2F)cn1` [Example 874], the IC50 in experiment [1] (setting [2]) is 359 nM. Moreover, affinity at human FLAP (setting [3]) was put at a Ki of 51.1 nM.
With `CC(C)S(=O)(=O)c1nc(C(F)(F)F)ccc1-c1ccc(-c2cnc(N)nc2)c(F)c1` [Example 902, 5-(2-Fluoro-4-{2-[(1-methylethyl)sulfonyl]-6-(trifluoromethyl)pyridin-3-yl}phenyl)pyrimidin-2-amine], the IC50 in experiment [1] (setting [2]) came out at 88.6 nM. Moreover, the affinity on human FLAP (setting [3]) corresponds to a Ki of 18.4 nM.
Regarding `CC(C)(C)NS(=O)(=O)c1ccccc1-c1ccc(-c2cnc3[nH]ccc3c2)c(F)c1` [Example 367, N-tert-Butyl-3′-fluoro-4′-(1H-pyrrolo[2,3-b]pyridin-5-yl)biphenyl-2-sulfonamide], the IC50 in experiment [1] (setting [4]) was 5.6 nM. The compound further yielded a Ki at human FLAP (setting [5]) of 0.9 nM.
As for `Nc1ccc(-c2ccccc2-c2ccc(-c3cnc(N)cn3)c(F)c2)cn1` [Example 861, 5-[2′-(6-Aminopyridin-3-yl)-3-fluorobiphenyl-4-yl]pyrazin-2-amine], the IC50 in experiment [1] (setting [2]) turned out to be 44.9 nM. Further, at human FLAP (setting [3]), affinity was put at a Ki of 4 nM.
Turning to `CN1CCN(S(=O)(=O)c2ccccc2-c2ccc(-c3cnc(N)cn3)c(F)c2)CC1` [Example 54, 5-{3-Fluoro-2′-[(4-methylpiperazin-1-yl)sulfonyl]biphenyl4-yl}pyrazin-2-amine], the IC50 in experiment [1] (setting [4]) came out at 41.3 nM. This compound also had an inhibitory constant (Ki) at human FLAP (setting [5]) of 24.9 nM.
For the compound `C[C@@H](CO)NS(=O)(=O)c1ccccc1-c1cnc(-c2cnc(N)nc2)c(F)c1` [Example 880, 2-[6-(2-Aminopyrimidin-5-yl)-5-fluoropyridin-3-yl]-N-[(1S)-2-hydroxy-1-methylethyl]benzenesulfonamide], the IC50 in experiment [1] (setting [2]) turned out to be 180 nM. The Ki at human FLAP (setting [3]) worked out at 86.7 nM.
For the compound `CCCCCCS(=O)(=O)c1ccccc1-c1ccc(-c2cnc(N)cn2)c(F)c1` [Example 198, 5-[3-Fluoro-2′-(hexylsulfonyl)biphenyl-4-yl]pyrazin-2-amine], in experiment [1] (setting [4]), the IC50 amounted to 819 nM. The compound also came in with a Ki on human FLAP (setting [5]) of 72.1 nM.
As to `COCCn1cc(-c2ccccc2-c2ccc(-c3cnc(N)cn3)c(F)c2)cn1` [Example 869, 5-{3-Fluoro-2′-[1-(2-methoxyethyl)-1H-pyrazol-4-yl]biphenyl-4-yl}pyrazin-2-amine], in experiment [1] (setting [2]), the IC50 was determined as 844 nM. Further, affinity on human FLAP (setting [3]) was put at a Ki of 141 nM.
With `Nc1cnc(-c2ccc(-c3ccccc3S(=O)(=O)c3ccccc3)cc2F)cn1` [Example 477, 5-[3-Fluoro-2′-(phenylsulfonyl)biphenyl-4-yl]pyrazin-2-amine], the IC50 in experiment [1] (setting [2]) was 268 nM. The same compound registered an inhibitory constant (Ki) on human FLAP (setting [3]) of 14.7 nM.
In the case of `CC(C)(C)NS(=O)(=O)c1ccccc1-c1ccc(-c2cnc(N)c(Cl)n2)c(F)c1` [Example 441, 4′-(5-Amino-6-chloropyrazin-2-yl)-N-tert-butyl-3′-fluorobiphenyl-2-sulfonamide], the IC50 in experiment [1] (setting [2]) is 6.5 nM. This compound also had an inhibition constant (Ki) on human FLAP (setting [3]) of 0.8 nM.
Regarding `C[C@H](O)CNS(=O)(=O)c1ccccc1-c1cnc(-c2cnc(N)nc2)c(F)c1` [Example 879, 2-[6-(2-Aminopyrimidin-5-yl)-5-fluoropyridin-3-yl]-N-[(2S)-2-hydroxypropyl]benzenesulfonamide], in experiment [1] (setting [2]), the IC50 came out at 106 nM. The Ki at human FLAP (setting [3]) was determined as 168 nM.
As to `CC(C)(C)NS(=O)(=O)c1ccccc1-c1ccc(-c2cnc(N)c(N)n2)c(F)c1` [Example 428, N-tert-Butyl-4′-(5,6-diaminopyrazin-2-yl)-3′-fluorobiphenyl-2-sulfonamide], in experiment [1] (setting [2]), the IC50 is 4.4 nM. Moreover, the Ki on human FLAP (setting [3]) was 4.3 nM.
